Laboratory results from patent US11384182B2, “Supramolecular polymer composition and method of preparation thereof” (City University of Hong Kong, priority 2019, dated 2022).

Key:
[1] = cited from earlier work
[2] = release of carvacrol in air by weight loss; type: physicochemical; conditions: at 100 days
Experimental: The amount of carvacrol, i.e. the hydrophobic material in the composition, released in air was calculated by weight loss and is illustrated in FIG. 8C. The amount of carvacrol released in water was monitored by UV-vis scanning spectrophotometer (Shimadzu 1700), wherein

In the case of `Cc1ccc(C(C)C)cc1O` [carvacrol], the “saturation concentration in water” value [1] is given as “about 3 mM” and the “reduction of the original mass” value [2] is given as “approximately 40%”.
